# Measurements from patent US20230085307A1, “PYRIDAZINONE COMPOUND AND HERBICIDE” (NISSAN CHEMICAL CORPORATION, priority 2019, published 2023).
# What was measured:
# barnyard grass [1] = experiment: Test Example 5: herbicidal effect by foliage application, plastic box (Table 20, symbol H); type: in vivo, barnyard grass (Echinochloa crus-galli); conditions: foliage application, 320 g/ha, three weeks after application
# Outline: (§1)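 Plants were sown into sterilized diluvial soil under about 1.5 cm cover and kept in a greenhouse at 25° C. to 30° C. Fourteen days on, foliage received an even spray of the diluted emulsion. Herbicidal or crop effect was judged three weeks afterwards.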
# late watergrass = experiment: Test Example 1: herbicidal activity, application before weed generation under submerged conditions (Table 16, symbol A); type: in vivo, late watergrass (Echinochloa oryzicola); conditions: amount of applied herbicide 320 g/ha
# From the text: (§2) [Test Example 1] Herbicidal Activity Test by Application before Weed Generation under Submerged Conditions After alluvial soil was placed into 1/10000 are of Wagner pot, water was poured and mixed to form a submerged condition having a water depth of 4 cm. Seeds of late watergrass, Japanese bulrush, and oval-leafed pondweed were sowed in a mixed manner in the aforementioned pot, and then 2.5 leaf stage rice plant seedlings were transplanted thereto. On the day of sowing seeds, the emulsion agent of the compound of the present invention prepared according to Formulation Example 2 was diluted with water so as to achieve a predetermined herbicide amount, and the diluted emulsion agent was applied to the surface of the water. The pot was placed in a greenhouse at 25° C. to 30° C. for growth of the plants. Three weeks after the herbicide application, the effect of the herbicide on each plant was evaluated according to the following criteria. Evaluation Criteria 5: Herbicidal rate of 90% or more (almost completely withered) 4: Herbicidal rate of 70% or more and less than 90% 3: Herbicidal rate of 40% or more and less than 70% 2: Herbicidal rate of 20% or more and less than 40% 1: Herbicidal rate of 5% or more and less than 20% 0: Herbicidal rate of 5% or less (almost no effect)
# redroot pigweed [2] = experiment: Test Example 5: herbicidal effect by foliage application, plastic box (Table 20, symbol N); type: in vivo, redroot pigweed (Amaranthus retroflexus); conditions: foliage application, 320 g/ha, three weeks after application
# Outline: as §1
# green foxtail [3] = experiment: Test Example 5: herbicidal effect by foliage application, plastic box (Table 20, symbol G); type: in vivo, green foxtail (Setaria viridis); conditions: foliage application, 320 g/ha, three weeks after application
# Outline: as §1
# Japanese bulrush = experiment: Test Example 1: herbicidal activity, application before weed generation under submerged conditions (Table 16, symbol B); type: in vivo, Japanese bulrush (Schoenoplectus juncoides); conditions: amount of applied herbicide 320 g/ha
# Outline: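 Alluvial soil was flooded to 4 cm depth, weed seeds were sown mixed and 2.5-leaf rice seedlings were transplanted. On sowing day, the compound's emulsion, diluted in water to a set dose, was applied to the water surface. Plants grew at 25–30 °C and were scored 0–5 after three weeks.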
# lambsquarters [4] = experiment: Test Example 4: herbicidal effect by soil treatment (Table 19, symbol O); type: in vivo, lambsquarters (Chenopodium album); conditions: amount of applied herbicide 320 g/ha
# Outline: (§3)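 In this soil treatment, the formulated compound reached the seeds only through the soil: seeds were buried about 1.5 cm deep in sterilized diluvial soil, then the diluted emulsion was sprayed over the surface. After three weeks at 25° C. to 30° C. in a greenhouse, effects were graded on criteria from an earlier test.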
# rice flat sedge = experiment: Test Example 3: herbicidal effect by foliage application, Wagner pot (Table 18, symbol E); type: in vivo, rice flat sedge (Cyperus iria)
# Outline: (§4)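 Plants were sown in alluvial soil held under 0.1–0.5 cm standing water and grown 14 days in a greenhouse at 25–30 °C. An emulsifiable formulation, water-diluted to the set dose, was then sprayed onto the foliage, and effects were scored three weeks later using previously defined criteria.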
# barnyard grass [5] = experiment: Test Example 4: herbicidal effect by soil treatment (Table 19, symbol H); type: in vivo, barnyard grass (Echinochloa crus-galli); conditions: amount of applied herbicide 320 g/ha
# Outline: as §3
# southern crabgrass [6] = experiment: Test Example 4: herbicidal effect by soil treatment (Table 19, symbol F); type: in vivo, southern crabgrass (Digitaria ciliaris); conditions: amount of applied herbicide 320 g/ha
# Outline: as §3
# lambsquarters [7] = experiment: Test Example 5: herbicidal effect by foliage application, plastic box (Table 20, symbol O); type: in vivo, lambsquarters (Chenopodium album); conditions: foliage application, 320 g/ha, three weeks after application
# Outline: as §1
# oval-leafed pondweed = experiment: Test Example 1: herbicidal activity, application before weed generation under submerged conditions (Table 16, symbol C); type: in vivo, oval-leafed pondweed (Monochoria vaginalis); conditions: amount of applied herbicide 320 g/ha
# From the text: as §2
# velvetleaf [8] = experiment: Test Example 5: herbicidal effect by foliage application, plastic box (Table 20, symbol M); type: in vivo, velvetleaf (Abutilon theophrasti); conditions: foliage application, 320 g/ha, three weeks after application
# Outline: as §1
# redroot pigweed [9] = experiment: Test Example 4: herbicidal effect by soil treatment (Table 19, symbol N); type: in vivo, redroot pigweed (Amaranthus retroflexus); conditions: amount of applied herbicide 320 g/ha
# Outline: as §3
# barnyard grass [10] = experiment: Test Example 3: herbicidal effect by foliage application, Wagner pot (Table 18, symbol H); type: in vivo, barnyard grass (Echinochloa crus-galli)
# Outline: as §4
# Chinese sprangletop = experiment: Test Example 3: herbicidal effect by foliage application, Wagner pot (Table 18, symbol D); type: in vivo, chinese sprangletop (Leptochloa chinensis)
# Outline: as §4
# green foxtail [11] = experiment: Test Example 4: herbicidal effect by soil treatment (Table 19, symbol G); type: in vivo, green foxtail (Setaria viridis); conditions: amount of applied herbicide 320 g/ha
# Outline: as §3
# velvetleaf [12] = experiment: Test Example 4: herbicidal effect by soil treatment (Table 19, symbol M); type: in vivo, velvetleaf (Abutilon theophrasti); conditions: amount of applied herbicide 320 g/ha
# Outline: as §3
# southern crabgrass [13] = experiment: Test Example 5: herbicidal effect by foliage application, plastic box (Table 20, symbol F); type: in vivo, southern crabgrass (Digitaria ciliaris); conditions: foliage application, 320 g/ha, three weeks after application
# Outline: as §1
# blackgrass = experiment: Test Example 5: herbicidal effect by foliage application, plastic box (Table 20, symbol J); type: in vivo, blackgrass (Alopecurus myosuroides); conditions: foliage application, 320 g/ha, three weeks after application
# Outline: as §1
# persian speedwell = experiment: Test Example 5: herbicidal effect by foliage application, plastic box (Table 20, symbol R); type: in vivo, Persian speedwell (Veronica persica); conditions: foliage application, 320 g/ha, three weeks after application
# Outline: as §1
# windgrass = experiment: Test Example 5: herbicidal effect by foliage application, plastic box (Table 20, symbol L); type: in vivo, windgrass (Apera spica-venti); conditions: foliage application, 320 g/ha, three weeks after application
# Outline: as §1
# Italian ryegrass = experiment: Test Example 5: herbicidal effect by foliage application, plastic box (Table 20, symbol K); type: in vivo, Italian ryegrass (Lolium multiflorum); conditions: foliage application, 320 g/ha, three weeks after application
# Outline: as §1
# wild oat = experiment: Test Example 5: herbicidal effect by foliage application, plastic box (Table 20, symbol I); type: in vivo, wild oat (Avena fatua); conditions: foliage application, 320 g/ha, three weeks after application
# Outline: as §1
# [14] = amount of applied herbicide 320 g/ha
structure (smiles),measurement,setting,value
Cc1nn(C)c(=O)c(-c2c(-c3ccc(OCC=C(Cl)Cl)cc3)sc3ccc(F)cc23)c1O [2-442],"H: barnyard grass, herbicidal effect grade",barnyard grass [1],4 (Herbicidal rate of 70% or more and less than 90%)
same,"Herbicidal effect, A: late watergrass",late watergrass,3 (Herbicidal rate of 40% or more and less than 70%)
same,"N: redroot pigweed, herbicidal effect grade",redroot pigweed [2],5 (Herbicidal rate of 90% or more (almost completely withered))
same,"G: green foxtail, herbicidal effect grade",green foxtail [3],3 (Herbicidal rate of 40% or more and less than 70%)
same,"Herbicidal effect, B: Japanese bulrush",Japanese bulrush,2 (Herbicidal rate of 20% or more and less than 40%)
same,"herbicidal effect, O: lambsquarters",lambsquarters [4],1 (Herbicidal rate of 5% or more and less than 20%)
same,herbicidal effect on E: rice flat sedge,rice flat sedge; [14],3 (Herbicidal rate of 40% or more and less than 70%)
same,"herbicidal effect, H: barnyard grass",barnyard grass [5],0 (Herbicidal rate of 5% or less (almost no effect))
same,"herbicidal effect, F: southern crabgrass",southern crabgrass [6],0 (Herbicidal rate of 5% or less (almost no effect))
same,"O: lambsquarters, herbicidal effect grade",lambsquarters [7],5 (Herbicidal rate of 90% or more (almost completely withered))
same,"Herbicidal effect, C: oval-leafed pondweed",oval-leafed pondweed,2 (Herbicidal rate of 20% or more and less than 40%)
same,"M: velvetleaf, herbicidal effect grade",velvetleaf [8],4 (Herbicidal rate of 70% or more and less than 90%)
same,"herbicidal effect, N: redroot pigweed",redroot pigweed [9],3 (Herbicidal rate of 40% or more and less than 70%)
same,herbicidal effect on H: barnyard grass,barnyard grass [10]; [14],5 (Herbicidal rate of 90% or more (almost completely withered))
same,herbicidal effect on D: Chinese sprangletop,Chinese sprangletop; [14],2 (Herbicidal rate of 20% or more and less than 40%)
same,"herbicidal effect, G: green foxtail",green foxtail [11],0 (Herbicidal rate of 5% or less (almost no effect))
same,"herbicidal effect, M: velvetleaf",velvetleaf [12],0 (Herbicidal rate of 5% or less (almost no effect))
same,"F: southern crabgrass, herbicidal effect grade",southern crabgrass [13],3 (Herbicidal rate of 40% or more and less than 70%)
CCCC(=O)Oc1c(C)nn(C)c(=O)c1-c1c(-c2ccc(C(F)(F)F)cc2)sc2cc(C)c(C)cc12 [5-097],herbicidal effect on blackgrass (J),blackgrass,0 (Herbicidal rate of 5% or less (almost no effect))
same,herbicidal effect on barnyard grass (H),barnyard grass [1],0 (Herbicidal rate of 5% or less (almost no effect))
same,"Herbicidal effect, A: late watergrass",late watergrass,3 (Herbicidal rate of 40% or more and less than 70%)
same,herbicidal effect on persian speedwell (R),persian speedwell,0 (Herbicidal rate of 5% or less (almost no effect))
same,herbicidal effect on green foxtail (G),green foxtail [3],0 (Herbicidal rate of 5% or less (almost no effect))
same,"Herbicidal effect, B: Japanese bulrush",Japanese bulrush,0 (Herbicidal rate of 5% or less (almost no effect))
same,herbicidal effect on rice flat sedge (E),rice flat sedge; 320 g/ha,1 (Herbicidal rate of 5% or more and less than 20%)
same,herbicidal effect on lambsquarters (O),lambsquarters [7],0 (Herbicidal rate of 5% or less (almost no effect))
same,"Herbicidal effect, C: oval-leafed pondweed",oval-leafed pondweed,0 (Herbicidal rate of 5% or less (almost no effect))
same,herbicidal effect on velvetleaf (M),velvetleaf [8],0 (Herbicidal rate of 5% or less (almost no effect))
same,herbicidal effect on windgrass (L),windgrass,0 (Herbicidal rate of 5% or less (almost no effect))
same,herbicidal effect on barnyard grass (H),barnyard grass [10]; 320 g/ha,4 (Herbicidal rate of 70% or more and less than 90%)
same,herbicidal effect on Chinese sprangletop (D),Chinese sprangletop; 320 g/ha,2 (Herbicidal rate of 20% or more and less than 40%)
same,herbicidal effect on Italian ryegrass (K),Italian ryegrass,0 (Herbicidal rate of 5% or less (almost no effect))
same,herbicidal effect on southern crabgrass (F),southern crabgrass [13],0 (Herbicidal rate of 5% or less (almost no effect))
same,herbicidal effect on wild oat (I),wild oat,0 (Herbicidal rate of 5% or less (almost no effect))
